Assays:
Experiment in all cases: In vitro antibacterial activity, agar dilution MIC
Format in all cases: cell-based
[1] = test system: Candida albicans CCH 442; conditions: code TT, BHI agar, 35-37° C., 20 to 24 hours, unit assumed
Experimental: (§1) Representative compounds of the present invention were assayed in vitro for antibacterial activity as follows: Twelve petri dishes containing successive aqueous dilutions of the test compound mixed with 10 mL of sterilized Brain Heart Infusion (BHI) agar (Difco 0418-01-5) were prepared. Each plate was inoculated with 1:100 (or 1:10 for slow-growing strains, such as Micrococcus and Streptococcus) dilutions of up to 32 different microorganisms, using a Steers replicator block. The inoculated plates were incubated at 35-37° C. for 20 to 24 hours. In addition, a control plate, using BHI agar containing no test compound, was prepared and incubated at the beginning and end of each test.
(§2) An additional plate containing a compound having known susceptibility patterns for the organisms being tested and belonging to the same antibiotic class as the test compound was also prepared and incubated as a further control, as well as to provide test-to-test comparability.
(§3) After incubation, each plate was visually inspected. The minimum inhibitory concentration (MIC) was defined as the lowest concentration of drug yielding no growth, a slight haze, or sparsely isolated colonies on the inoculum spot as compared to the growth control.

[2] = test system: Enterococcusfaecium ATCC X043; conditions: code II, BHI agar, 35-37° C., 20 to 24 hours, unit assumed
Experimental: as §1, §2, §3

[3] = test system: Escherichiacoli DC-2; conditions: code SS, BHI agar, 35-37° C., 20 to 24 hours, unit assumed
Experimental: as §1, §2, §3

[4] = test system: Escherichiacoli JUHL; conditions: code QQ, BHI agar, 35-37° C., 20 to 24 hours, unit assumed
Experimental: as §1, §2, §3

[5] = test system: Escherichiacoli SS; conditions: code RR, BHI agar, 35-37° C., 20 to 24 hours, unit assumed
Experimental: as §1, §2, §3

[6] = test system: Haemophilislnfluenzae DILL AMP R; conditions: code WW, BHI agar, 35-37° C., 20 to 24 hours, unit assumed
Experimental: as §1, §2, §3

[7] = test system: Micrococcusluteus ATCC 4698; conditions: code PP, BHI agar, 35-37° C., 20 to 24 hours, unit assumed
Experimental: as §1, §2, §3

[8] = test system: Micrococcusluteus ATCC 9341; conditions: code OO, BHI agar, 35-37° C., 20 to 24 hours, unit assumed
Experimental: as §1, §2, §3

[9] = test system: Mycobacterium smegmatis ATCC 114; conditions: code UU, BHI agar, 35-37° C., 20 to 24 hours, unit assumed
Experimental: as §1, §2, §3

[10] = test system: Nocardia Asteroides ATCC 99700; conditions: code VV, BHI agar, 35-37° C., 20 to 24 hours, unit assumed
Experimental: as §1, §2, §3

[11] = test system: Staphylococcus aureus 1775; conditions: code GG, BHI agar, 35-37° C., 20 to 24 hours, unit assumed
Experimental: as §1, §2, §3

[12] = test system: Staphylococcus aureus A-5177; conditions: code BB, BHI agar, 35-37° C., 20 to 24 hours, unit assumed
Experimental: as §1, §2, §3

[13] = test system: Staphylococcus aureus A-5278; conditions: code CC, BHI agar, 35-37° C., 20 to 24 hours, unit assumed
Experimental: as §1, §2, §3

[14] = test system: Staphylococcus aureus ATCC 6538P; conditions: code AA, BHI agar, 35-37° C., 20 to 24 hours, unit assumed
Experimental: as §1, §2, §3

[15] = test system: Staphylococcus aureus CMX 553; conditions: code FF, BHI agar, 35-37° C., 20 to 24 hours, unit assumed
Experimental: as §1, §2, §3

[16] = test system: Staphylococcus aureus CMX 642A; conditions: code DD, BHI agar, 35-37° C., 20 to 24 hours, unit assumed
Experimental: as §1, §2, §3

[17] = test system: Staphylococcus aureus NCTC 10649M; conditions: code EE, BHI agar, 35-37° C., 20 to 24 hours, unit assumed
Experimental: as §1, §2, §3

[18] = test system: Staphylococcus epidermidis 3519; conditions: code HH, BHI agar, 35-37° C., 20 to 24 hours, unit assumed
Experimental: as §1, §2, §3

[19] = test system: Streptococcus Pneumonia 5649; conditions: code ZZA, BHI agar, 35-37° C., 20 to 24 hours, unit assumed
Experimental: as §1, §2, §3

[20] = test system: Streptococcus Pneumonia 5979; conditions: code ZZ, BHI agar, 35-37° C., 20 to 24 hours, unit assumed
Experimental: as §1, §2, §3

[21] = test system: Streptococcus Pneumonia ATCC 6303; conditions: code XX, BHI agar, 35-37° C., 20 to 24 hours, unit assumed
Experimental: as §1, §2, §3

[22] = test system: Streptococcus Pneumonia GYR 1171; conditions: code YY, BHI agar, 35-37° C., 20 to 24 hours, unit assumed
Experimental: as §1, §2, §3

[23] = test system: Streptococcus agalactiae CMX 508; conditions: code KK, BHI agar, 35-37° C., 20 to 24 hours, unit assumed
Experimental: as §1, §2, §3

[24] = test system: Streptococcus bovis A-5169; conditions: code JJ, BHI agar, 35-37° C., 20 to 24 hours, unit assumed
Experimental: as §1, §2, §3

[25] = test system: Streptococcus pyogenes 930; conditions: code MM, BHI agar, 35-37° C., 20 to 24 hours, unit assumed
Experimental: as §1, §2, §3

[26] = test system: Streptococcus pyogenes EES61; conditions: code LL, BHI agar, 35-37° C., 20 to 24 hours, unit assumed
Experimental: as §1, §2, §3

[27] = test system: Streptococcus pyogenes PIU 2548; conditions: code NN, BHI agar, 35-37° C., 20 to 24 hours, unit assumed
Experimental: as §1, §2, §3

Row | SMILES | Antibacterial Activity (MIC) [1] | Antibacterial Activity (MIC) [2] | Antibacterial Activity (MIC) [3] | Antibacterial Activity (MIC) [4] | Antibacterial Activity (MIC) [5] | Antibacterial Activity (MIC) [6] | Antibacterial Activity (MIC) [7] | Antibacterial Activity (MIC) [8] | Antibacterial Activity (MIC) [9] | Antibacterial Activity (MIC) [10] | Antibacterial Activity (MIC) [11] | Antibacterial Activity (MIC) [12] | Antibacterial Activity (MIC) [13] | Antibacterial Activity (MIC) [14] | Antibacterial Activity (MIC) [15] | Antibacterial Activity (MIC) [16] | Antibacterial Activity (MIC) [17] | Antibacterial Activity (MIC) [18] | Antibacterial Activity (MIC) [19] | Antibacterial Activity (MIC) [20] | further results
1 | C=CCC1(C)C(=O)OC(CC)C2(C)OC(=O)NC2C(C)C(=O)C(C)CC(C)(OCC=Cc2cnc3ccccc3c2)C(OC2OC(C)CC(N(C)C)C2O)C(C)C1=O (stereo not drawn) [Example 4, Compound of formula (II): R^a is —CH2CH═CH-(3-quinolinyl), R^b is H, Y and Z together are O, T is —NH—, R is —CH2CH═CH2] | > 100 µg/mL | 0.2 µg/mL | > 100 µg/mL | > 100 µg/mL | 3.1 µg/mL | 16 µg/mL | 0.78 µg/mL | 0.1 µg/mL | 3.1 µg/mL | 0.1 µg/mL | > 100 µg/mL | 0.39 µg/mL | > 100 µg/mL | 0.78 µg/mL | 0.39 µg/mL | 0.78 µg/mL | 0.78 µg/mL | 0.39 µg/mL | 2 µg/mL | 64 µg/mL | Antibacterial Activity (MIC) [21]: 0.25 µg/mL; Antibacterial Activity (MIC) [22]: 0.25 µg/mL; Antibacterial Activity (MIC) [23]: 0.2 µg/mL; Antibacterial Activity (MIC) [24]: 0.05 µg/mL; Antibacterial Activity (MIC) [25]: 12.5 µg/mL; Antibacterial Activity (MIC) [26]: 0.1 µg/mL; Antibacterial Activity (MIC) [27]: 0.78 µg/mL
2 | C#CCOC1(C)CC(C)C(=O)C(C)C2NC(=O)OC2(C)C(CC)OC(=O)C(C)(CC=Cc2ccccc2)C(=O)C(C)C1OC1OC(C)CC(N(C)C)C1O (stereo not drawn) [Example 9, Compound of formula (II): R^a is —CH2C═CH, R^b is H, Y and Z together are O, T is —NH—, R is —CH2CH═CH-(phenyl)] | > 100 µg/mL | 3.1 µg/mL | > 100 µg/mL | > 100 µg/mL | 6.2 µg/mL | > 64 µg/mL | 3.1 µg/mL | 1.56 µg/mL | 12.5 µg/mL | 1.56 µg/mL | > 100 µg/mL | 3.1 µg/mL | > 100 µg/mL | 3.1 µg/mL | 3.1 µg/mL | 3.1 µg/mL | 12.5 µg/mL | 6.2 µg/mL | 8 µg/mL | 64 µg/mL | Antibacterial Activity (MIC) [21]: 1 µg/mL; Antibacterial Activity (MIC) [22]: 1 µg/mL; Antibacterial Activity (MIC) [23]: 1.56 µg/mL; Antibacterial Activity (MIC) [24]: 0.78 µg/mL; Antibacterial Activity (MIC) [25]: 50 µg/mL; Antibacterial Activity (MIC) [26]: 1.56 µg/mL; Antibacterial Activity (MIC) [27]: 3.1 µg/mL

Source: patent US6355620B1, “C-2 modified erythromycin derivatives” (Abbott Laboratories, priority 1999, dated 2002)
